From US11952349B2, “Anti-cancer nuclear hormone receptor-targeting compounds” (Nuvation Bio Inc., priority 2019, dated 2024)

What was measured:
22Rv1 cells = test: Cell viability assay (CellTiterGlo, 6 days) 22Rv1; assay type: cell-based; details: Homo sapiens, 22Rv1, 144 h; Table 7; cell viability, 6 days; read-out: 22RV1
Experimental: (§1) Cell viability assay: LNCap, 22Rv1, and T47D cells were seeded at a density of 1500-2000 cells/well in 96 well plates, and a ‘T0’ (timepoint 0) was included along with the assay plate. The plates were then incubated at 37° C., 5% CO2 in a cell culture incubator overnight. On the next day, the ‘T0’ plate was assayed using CellTiterGlo (Promega, Inc) according to the manufacturer's instructions. The appropriate compounds were diluted in DMSO and added to the assay plate (final DMSO concentration of 0.2%) on the next day. The assay plates were incubated for 6 days at 37° C., 5% CO2. After the incubation period, the plates were assayed using CellTiterGlo (Promega, Inc) according to the manufacturer's instructions and luminescence was read on the EnVision plate reader. Inhibition the tested compounds was determined by the following formula: Inhibition rate (%)=(1−(RLU compound−RLU day0)/(RLU control−RLU day0))*100%. GraphPadPrism was used to analyze the data and determine absolute IC50 values.

[1] = target: T1, GR, cytosol from IM-9 cells (Homo sapiens, UniProt P04150); test: GR binding assay, 3H-Dexamethasone; details: Table 8; 3H-Dexamethasone 1.5 nM
T1 construct: endogenous in cells; host or cells: IM-9 cells (cytosol)
T1 sequence (P04150 1-777): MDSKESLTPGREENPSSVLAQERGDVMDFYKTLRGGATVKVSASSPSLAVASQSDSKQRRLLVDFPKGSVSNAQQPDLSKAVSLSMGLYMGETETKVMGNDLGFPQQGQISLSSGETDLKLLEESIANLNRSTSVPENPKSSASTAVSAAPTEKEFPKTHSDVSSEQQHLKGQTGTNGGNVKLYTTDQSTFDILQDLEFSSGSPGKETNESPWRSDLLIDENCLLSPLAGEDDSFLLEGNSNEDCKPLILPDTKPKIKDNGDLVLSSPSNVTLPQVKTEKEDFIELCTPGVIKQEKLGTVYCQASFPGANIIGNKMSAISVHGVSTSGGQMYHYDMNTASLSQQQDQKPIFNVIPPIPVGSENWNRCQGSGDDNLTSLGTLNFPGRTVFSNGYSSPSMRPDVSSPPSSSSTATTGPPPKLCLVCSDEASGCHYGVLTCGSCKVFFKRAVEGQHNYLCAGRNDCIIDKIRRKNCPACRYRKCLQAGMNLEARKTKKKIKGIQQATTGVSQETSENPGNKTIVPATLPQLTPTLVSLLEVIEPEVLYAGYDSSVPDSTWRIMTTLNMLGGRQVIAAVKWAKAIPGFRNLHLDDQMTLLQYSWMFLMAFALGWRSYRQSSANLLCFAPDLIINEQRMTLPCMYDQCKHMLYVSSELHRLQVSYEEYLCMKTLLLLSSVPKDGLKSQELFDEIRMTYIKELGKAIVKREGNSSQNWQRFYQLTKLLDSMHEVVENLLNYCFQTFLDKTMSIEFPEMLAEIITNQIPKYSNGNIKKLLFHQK
Experimental: GR binding assay: To assess GR binding, test compound (top dose 1 μM, 4 fold serial dilution, 8 point dose response) and control (dexamethasone) were transferred to the assay plate. Cytosol from IM-9 cells was added to the plate, followed by addition of radiolabeled ^3H-Dexamethasone at a final concentration of 1.5 nM. The plate was sealed, and the reaction was incubated at 300 rpm at 4° C. for 24 hrs. Radioligand absorption buffer (10 mM Tris-HCl, pH 7.4; 1.5 mM EDTA; 1 mM DTT; 0.25% charcoal; 0.0025% dextran) was then added to the plate, mixed, and incubated at 4° C. for 15 minutes. The plate was then centrifuged at […] for 30 minutes at 4° C. The supernatant was transferred to the scint-tube and Tri-carb was used for scintillation counting. The data was analyzed using GraphPadPrism v5.0 and binding IC50 was determined as the concentration where 50% inhibition of radioligand binding was observed.

[2] = target: T2, ligand binding domain of the glucocorticoid receptor (Homo sapiens, UniProt P04150); test: GR antagonism assay (HEK293, dexamethasone 1.5 nM, Dual-glo); assay type: cell-based; details: Table 8
T2 construct: expressed in transfected cells
T2 sequence (P04150 524-758 limits assumed): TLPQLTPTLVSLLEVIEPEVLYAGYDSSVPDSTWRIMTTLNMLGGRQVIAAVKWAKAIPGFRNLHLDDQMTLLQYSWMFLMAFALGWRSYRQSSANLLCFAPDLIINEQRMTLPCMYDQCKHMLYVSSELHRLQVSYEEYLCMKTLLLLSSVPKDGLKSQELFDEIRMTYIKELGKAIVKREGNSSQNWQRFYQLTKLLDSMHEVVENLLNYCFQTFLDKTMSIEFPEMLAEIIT
Experimental: GR antagonism assay: To evaluate GR antagonist activity, test compound was added to the assay plate (top dose 5 μM, 4 fold serial dilution, 8 point dose response). HEK293 cells stably expressing the ligand binding domain of the glucocorticoid receptor were seeded at a density of 40000 cells/well in the assay plate. The assay plate was then incubated at 37° C., 5% CO2 for 30 minutes. Dexamethasone was added to the assay plate at 1.5 nM final concentration and the assay plate was incubated at 37° C., 5% CO2 for 20 h. After the incubation period, Dual-glo luciferase reagent was added to the assay plate and mixed at room temperature for 20 minutes on an orbital shaker, before reading out on the EnVision plate reader.

[3] = target: T3, Progesterone Receptor (PR)-LBD (Homo sapiens, UniProt P06401); test: PR coactivator antagonist assay; assay type: biochemical; details: Table 8; 10 nM progesterone; read-out: PR antagonism
T3 sequence (P06401 679-913 limits assumed): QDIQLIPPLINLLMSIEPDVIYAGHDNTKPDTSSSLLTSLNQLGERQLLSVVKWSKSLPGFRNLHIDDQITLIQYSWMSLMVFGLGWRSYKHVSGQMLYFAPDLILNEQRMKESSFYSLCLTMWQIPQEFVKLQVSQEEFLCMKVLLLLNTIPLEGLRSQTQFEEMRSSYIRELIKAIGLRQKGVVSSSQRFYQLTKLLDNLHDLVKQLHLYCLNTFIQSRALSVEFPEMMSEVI
Experimental: PR coactivator antagonist assay: Test compound (Top dose 10 μM, 4 fold serial dilution, 8 point dose response) and/or vehicle was incubated with the 2.5 nM Progesterone Receptor (PR)-LBD and coactivator peptide for 30 minutes at RT. Determination of the amount of complex formed is read spectrofluorimetrically (excitation: 337 nm, emission: 520/490 nm). Test compound-induced inhibition of 10 nM progesterone-induced fluorescence response by 50 percent or more (>50%) indicates receptor antagonist activity.

T47D cells = test: Cell viability assay (CellTiterGlo, 6 days) T47D; assay type: cell-based; details: Homo sapiens, 144 h, Table 8
Experimental: as §1

Row | IC50 [1] [nM] | IC50 [2] [nM] | IC50 [3] [nM] | IC50 (T47D cells) [nM] | SMILES | IC50 (22Rv1 cells) [nM]
1 |  |  |  |  | C[C@@]12CCC(=O)C[C@H]1CC[C@H]1[C@H]2CC[C@]2(C)[C@@H]1CC[C@H]2OCCCCCCNC(=O)c1cc(Cc2n[nH]c(=O)c3ccccc23)ccc1F (stereo in doubt) [Compound 1426, N-(6-((5R,8S,9R,10R,13R,14R,17R)-10,13-dimethyl-3-oxohexadecahydro-1H-cyclopenta[a]phenanthren-17-yloxy)hexyl)-2-fluoro-5-((4-oxo-3,4-dihydrophthalazin-1-yl)methyl)benzamide] | 1000 to 10000
2 | < 10 | < 10 | < 10 | 100 to 1000 | CC#C[C@]1(O)CC[C@H]2[C@@H]3CCC4=CC(=O)CCC4=C3[C@@H](c3ccc(N(C)CCCCCC(=O)N4CCN(C(=O)c5cc(Cc6n[nH]c(=O)c7ccccc67)ccc5F)CC4)cc3)C[C@@]21C [Compound 135, 4-(4-fluoro-3-(4-(6-((4-((8S,11R,13S,14S,17S)-17-hydroxy-13-methyl-3-oxo-17-(prop-1-ynyl)-2,3,6,7,8,11,12,13,14,15,16,17-dodecahydro-1H-cyclopenta[a]phenanthren-11-yl)phenyl)(methyl)amino)hexanoyl)piperazine-1-carbonyl)benzyl)phthalazin-1(2H)-one] | 
3 |  |  |  |  | C[C@]12C[C@H](CCCCCC(=O)N3CCN(C(=O)c4cc(Cc5n[nH]c(=O)c6ccccc56)ccc4F)CC3)C3=C4CCC(=O)C=C4CC[C@H]3[C@@H]1CCC2O (stereo partly drawn) [Compound 138, 4-(4-fluoro-3-(4-(6-((8S,11S,13S,14S)-17-hydroxy-13-methyl-3-oxo-2,3,6,7,8,11,12,13,14,15,16,17-dodecahydro-1H-cyclopenta[a]phenanthren-11-yl)hexanoyl)piperazine-1-carbonyl)benzyl)phthalazin-1(2H)-one] | 100 to 1000
4 |  |  |  |  | Cn1ncnc1C1c2n[nH]c(=O)c3cc(F)cc(c23)N[C@@H]1c1ccc(NC(=O)CCCCCO[C@@H]2CC[C@H]3[C@@H]4CC[C@H]5CCCC[C@]5(C)[C@H]4CC[C@]23C)cc1 (stereo partly drawn) [Compound 1128, 6-((5R,8R,9S,10S,13S,14S,17R)-10,13-dimethylhexadecahydro-1H-cyclopenta[a]phenanthren-17-yloxy)-N-(4-((8S)-5-fluoro-9-(1-methyl-1H-1,2,4-triazol-5-yl)-3-oxo-3,7,8,9-tetrahydro-2H-pyrido[4,3,2-de]phthalazin-8-yl)phenyl)hexanamide] | 1000 to 10000
5 | < 10 | < 10 | < 10 | 100 to 1000 | CC(=O)O[C@]1(C(C)=O)CC[C@H]2[C@@H]3CCC4=CC(=O)CCC4=C3[C@@H](c3ccc(N(C)CCCCCC(=O)N4CCN(C(=O)c5cc(Cc6n[nH]c(=O)c7ccccc67)ccc5F)CC4)cc3)C[C@@]21C [Compound 1378, (8S,11R,13S,14S,17R)-17-acetyl-11-(4-((6-(4-(2-fluoro-5-((4-oxo-3,4-dihydrophthalazin-1-yl)methyl)benzoyl)piperazin-1-yl)-6-oxohexyl)(methyl)amino)phenyl)-13-methyl-3-oxo-2,3,6,7,8,11,12,13,14,15,16,17-dodecahydro-1H-cyclopenta[a]phenanthren-17-yl acetate] | 
6 | < 10 | 10 to 100 | < 10 | 1000 to 10000 | CC(=O)O[C@]1(C(C)=O)CC[C@H]2[C@@H]3CCC4=CC(=O)CCC4=C3[C@@H](c3ccc(N(C)CCCCCC(=O)NCCOCCOCC(=O)N4CCN(C(=O)c5cc(Cc6n[nH]c(=O)c7ccccc67)ccc5F)CC4)cc3)C[C@@]21C [Compound 1384, (8S,11R,13S,14S,17R)-17-acetyl-11-(4-((6-(2-(2-(2-(4-(2-fluoro-5-((4-oxo-3,4-dihydrophthalazin-1-yl)methyl)benzoyl)piperazin-1-yl)-2-oxoethoxy)ethoxy)ethylamino)-6-oxohexyl)(methyl)amino)phenyl)-13-methyl-3-oxo-2,3,6,7,8,11,12,13,14,15,16,17-dodecahydro-1H-cyclopenta[a]phenanthren-17-yl acetate] | 
7 |  |  |  |  | C[C@]12Cc3cn[nH]c3C[C@@H]1CC[C@@H]1[C@@H]2CC[C@]2(C)[C@@H](OCCCCCC(=O)N3CCN(C(=O)c4cc(Cc5n[nH]c(=O)c6ccccc56)ccc4F)CC3)CC[C@@H]12 [Compound 1394, 4-(3-(4-(6-(((1S,3aS,3bR,5aS,10aS,10bS,12aS)-10a,12a-dimethyl-1,2,3,3a,3b,4,5,5a,6,7,10,10a,10b,11,12,12a-hexadecahydrocyclopenta[5,6]naphtho[1,2-f]indazol-1-yl)oxy)hexanoyl)piperazine-1-carbonyl)-4-fluorobenzyl)phthalazin-1(2H)-one] | 100 to 1000

Row | SMILES | IC50 [1] [nM] | IC50 [2] [nM] | IC50 [3] [nM] | IC50 (T47D cells) [nM] | IC50 (22Rv1 cells) [nM]
8 | C[C@]12CC[C@H]3[C@@H](CCC4=CC(=O)CC[C@@]43C)[C@@H]1CC[C@@H]2C(=O)COCCCCCC(=O)N1CCN(C(=O)c2cc(Cc3n[nH]c(=O)c4ccccc34)ccc2F)CC1 [Compound 1386, 4-(3-(4-(6-(2-((8S,9S,10R,13S,14S,17S)-10,13-dimethyl-3-oxo-2,3,6,7,8,9,10,11,12,13,14,15,16,17-tetradecahydro-1H-cyclopenta[a]phenanthren-17-yl)-2-oxoethoxy)hexanoyl)piperazine-1-carbonyl)-4-fluorobenzyl)phthalazin-1(2H)-one] | 100 to 1000 | 100 to 1000 | > 10000 | 100 to 1000 | 
